Source: US8586530B2, “Modulation of inhibition of ferrochelatase by N-methyl protoporphyrin” (University of South Florida, priority 2006, dated 2013)
Where a chain is given by its changes, count along the chain named.

Columns and labels:
[1] = target: T1, ferrochelatase variant P255G (Mus musculus, UniProt P22315, P308G); test: Fluorescence titration of NMPP binding (quenching of intrinsic protein fluorescence); set-up: species or system murine; settings: 10 mM Tris-acetate pH 8, 0.05% Tween-80, read-out: dissociation constant (Kd) of NMPP
T1 construct: In wild-type, murine, mature ferrochelatase, five tryptophan residues; penta-histidine tag (N); made in house; host or cells: E. coli BL21(DE3)
T1 sequence (P22315 54-422 P308G): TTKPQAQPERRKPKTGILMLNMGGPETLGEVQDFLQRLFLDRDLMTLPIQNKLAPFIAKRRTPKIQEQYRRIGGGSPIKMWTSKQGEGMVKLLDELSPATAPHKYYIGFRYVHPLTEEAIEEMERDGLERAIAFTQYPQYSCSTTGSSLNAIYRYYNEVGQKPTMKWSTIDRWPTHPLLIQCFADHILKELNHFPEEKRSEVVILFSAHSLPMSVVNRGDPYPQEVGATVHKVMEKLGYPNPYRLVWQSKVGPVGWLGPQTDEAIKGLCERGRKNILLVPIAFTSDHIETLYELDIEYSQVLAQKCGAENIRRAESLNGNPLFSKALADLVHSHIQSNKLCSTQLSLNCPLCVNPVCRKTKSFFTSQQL
Protocol: (§1) Aliquots of NMPP were added to a solution of enzyme in 10 mM Tris-acetate, pH 8 containing 0.05% Tween-80 and incubated on ice for 1 hr. The intrinsic protein fluorescence was monitored at 331 nm (λex=283 nm). The Kd value for NMPP was determined by fitting the data to Equation 3. The enzymes used in each set were: A. wild-type ferrochelatase (40 nM); B. P255R (250 nM); C. P255G (120 nM).
(§2) The equilibrium constant for NMPP binding to ferrochelatase could be determined from the change in intrinsic protein fluorescence upon ligand addition. […]
(§3) Fluorescence Titration Measurements. Equilibrium fluorescence measurements were made using a Shimadzu RF-5301PC fluorimeter at 23° C. with excitation and emission wavelengths at 283 nm and 331 nm, respectively. The decrease in protein fluorescence, due to NMPP binding, was monitored. […] In a typical titration experiment, aliquots of the NMPP stock were added to the protein solution and, upon incubation on ice for 1 h, the quenching in fluorescence was monitored as described above. […] The observed fluorescence intensity was plotted against NMPP concentration and the dissociation constant of NMPP for ferrochelatase was determined using the least-squares fit of each data set to equation 3 by nonlinear regression: […]

[2] = target: T2, ferrochelatase variant P255R (Mus musculus, UniProt P22315, P308R); test: as above; set-up: species or system murine; settings: 10 mM Tris-acetate pH 8, 0.05% Tween-80, read-out: dissociation constant (Kd) of NMPP
T2 construct: In wild-type, murine, mature ferrochelatase, five tryptophan residues; penta-histidine tag (N); made in house; host or cells: E. coli BL21(DE3)
T2 sequence (P22315 54-422 P308R): T1 sequence (P22315 54-422 P308G) with G255R
Protocol: as §1, §2, §3

ferrochelatase = settings: background statement, potent inhibitor of ferrochelatase; cited from earlier work

Question: Which Kd [1] does the source give for N-methyl protoporphyrin [NMPP] here?
Answer: The Kd was 300 ± 100 nM.

Question: What about the Kd [2] of the same substance?
Answer: Its Kd is 160 ± 70 nM.

Question: What about the Ki (ferrochelatase) of the same substance?
Answer: The Ki was about 10 nM.
